In patent US8815891B2, “Tricyclic derivative or pharmaceutically acceptable salts thereof, preparation method thereof, and pharmaceutical composition containing the same” (Je Il Pharmaceutical Co., Ltd., priority 2008, dated 2014) one finds IC50 data, which are given here for 27 molecules.

Experiment [1] has as its target PARP-1 enzyme (Homo sapiens (Human), UniProt P09874). The experiment in a line: Poly(ADP-ribose)polymerase [PARP-1] enzyme inhibitory activity (Trevigen PARP Assay kit). It counts as biochemical. The conditions noted are these: read-out: PARP-1 Inhibitory activity IC50. On the procedure: The activity of the compounds according to the present invention to inhibit the PARP-1 enzyme was examined using a PARP Assay kit (4671-096-K) purchased from Trevigen. The assay was performed following a modified previously reported method by Lee et al [Methods Find, Exp. Clin. Pharmacol., 27, 617-622, 2005].
Histone was coated on 384-well plate, which is a small volume PS plate (784101) of Greiner Bio-One, and left at 25° C. for 2 hours. After that, the plate was rinsed four times with PBS (7.5 mM Na2HPO4, 2.5 mM NaH2PO4, 145 mM NaCl, pH 7.4), and in order to prevent non-specific reaction, the Strep-diluent (provided from kit of Trevigen) was added and left at 25° C. for one hour. After one hour, the plate was again rinsed with PBS four times, and the compounds of the Examples in various concentrations were put into reactant containing PARP-1 enzyme (0.12 unit/well), 2×PARP cocktail (1.95 mM NAD^+, 50 uM biotinylated NAD^+, and activated DNA in 50 mM Tris pH 8.0, 25 mM MgCl2) and allowed to react at 25° C. for 30 minutes. After 30 minutes, each well was rinsed with PBS four times, and in order to measure the amount of rybosylation by the PARP enzyme, strepavidin-linked peroxidase (Strep-HRP, 1:1000 diluted) was added and allowed to react at 37° C. for 30 minutes. The plate was rinsed with PBS four times, and TACS-Sapphire substrate was put and allowed to react at 25° C. for 10 minutes so that color reaction occurred. Finally, the reaction was terminated by the addition of 0.2 N HCl. The amount of histone ribosylation formed by PARP-1 enzyme was quantified at 450 nm using Wallac EnVision™ (PerkinElmer Oy, Turku, Finland).

Experiment [2] addresses PARP-1 enzyme (Cricetulus griseus (Chinese hamster) (Cricetulus barabensis griseus), UniProt Q9R152). The experiment is described as follows: Intracellular PARP inhibitory activity (NAD(P)H released by MMS-treated CHO-K1 cells). Format: cell-based. As to the method:
In order to verify the ability of the compounds of the present invention to inhibit the PARP-1 enzyme activity, the amount of NAD(P)H accumulated on cell culture medium was measured.
The Chinese hamster ovary cells (CHO-K1) were cultured in RPMI1640 culture medium containing 10% fetal bovine serum (FBS). The cultured CHO-K1 cells were seeded into 96 well plate by 2.9×10^3 cells/well, and cultured for 16 hours under culture condition of 37° C., 5% CO2. After the culture, the cells were treated with the compounds of the Examples at varying concentrations, and cultured at 37° C. for 2 hours. […] The amount of […] released to the culture medium 3, 4, 5 hours after the treatment with MMS was quantified at 450 nm using Wallac EnVision™ (PerkinElmer Oy, Turku, Finland). The transference numbers of the compounds at varying concentrations according to the present invention are the average values obtained from four wells, and the results were calculated using regression analysis.
The Chinese hamster ovary cells (CHO-K1) were treated with the compounds at varying concentration according to the present invention, and the amount of NAD(P)H released into the culture medium 4 hours after the MMS treatment was quantified.

Where [3] appears, read: PARP-1 enzyme, histone ribosylation, 450 nm.

Structures can show the parent of a compound that is named as a salt. Where two headings read alike, the source gives them in different places.

Chain of PARP-1 enzyme (Homo sapiens (Human), UniProt P09874) (P09874 whole entry): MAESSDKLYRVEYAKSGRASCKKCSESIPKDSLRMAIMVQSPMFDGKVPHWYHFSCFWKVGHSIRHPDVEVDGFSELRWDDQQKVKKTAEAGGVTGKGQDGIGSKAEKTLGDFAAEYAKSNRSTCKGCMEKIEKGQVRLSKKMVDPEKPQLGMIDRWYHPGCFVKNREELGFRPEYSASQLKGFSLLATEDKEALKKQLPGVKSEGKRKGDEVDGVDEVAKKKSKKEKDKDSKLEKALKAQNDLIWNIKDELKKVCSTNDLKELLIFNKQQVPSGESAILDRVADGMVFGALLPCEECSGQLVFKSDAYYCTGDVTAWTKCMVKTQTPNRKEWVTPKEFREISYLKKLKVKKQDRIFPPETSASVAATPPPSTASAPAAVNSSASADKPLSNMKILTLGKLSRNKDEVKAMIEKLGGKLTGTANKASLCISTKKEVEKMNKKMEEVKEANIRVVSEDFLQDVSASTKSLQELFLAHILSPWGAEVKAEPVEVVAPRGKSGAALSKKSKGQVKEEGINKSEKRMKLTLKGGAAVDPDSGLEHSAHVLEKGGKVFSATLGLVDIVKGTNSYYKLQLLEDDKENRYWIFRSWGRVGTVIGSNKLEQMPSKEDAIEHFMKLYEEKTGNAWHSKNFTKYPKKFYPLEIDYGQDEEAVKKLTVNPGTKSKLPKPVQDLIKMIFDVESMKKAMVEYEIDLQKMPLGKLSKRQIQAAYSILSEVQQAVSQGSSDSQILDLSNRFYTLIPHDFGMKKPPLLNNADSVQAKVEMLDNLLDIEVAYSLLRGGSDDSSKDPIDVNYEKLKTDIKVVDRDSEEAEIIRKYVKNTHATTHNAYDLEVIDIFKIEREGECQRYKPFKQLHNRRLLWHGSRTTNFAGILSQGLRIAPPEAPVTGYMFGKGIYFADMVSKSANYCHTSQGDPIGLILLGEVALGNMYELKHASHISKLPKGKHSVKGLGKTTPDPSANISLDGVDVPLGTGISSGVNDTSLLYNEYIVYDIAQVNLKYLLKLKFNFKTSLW
Chain of PARP-1 enzyme (Cricetulus griseus (Chinese hamster) (Cricetulus barabensis griseus), UniProt Q9R152) (Q9R152 whole entry): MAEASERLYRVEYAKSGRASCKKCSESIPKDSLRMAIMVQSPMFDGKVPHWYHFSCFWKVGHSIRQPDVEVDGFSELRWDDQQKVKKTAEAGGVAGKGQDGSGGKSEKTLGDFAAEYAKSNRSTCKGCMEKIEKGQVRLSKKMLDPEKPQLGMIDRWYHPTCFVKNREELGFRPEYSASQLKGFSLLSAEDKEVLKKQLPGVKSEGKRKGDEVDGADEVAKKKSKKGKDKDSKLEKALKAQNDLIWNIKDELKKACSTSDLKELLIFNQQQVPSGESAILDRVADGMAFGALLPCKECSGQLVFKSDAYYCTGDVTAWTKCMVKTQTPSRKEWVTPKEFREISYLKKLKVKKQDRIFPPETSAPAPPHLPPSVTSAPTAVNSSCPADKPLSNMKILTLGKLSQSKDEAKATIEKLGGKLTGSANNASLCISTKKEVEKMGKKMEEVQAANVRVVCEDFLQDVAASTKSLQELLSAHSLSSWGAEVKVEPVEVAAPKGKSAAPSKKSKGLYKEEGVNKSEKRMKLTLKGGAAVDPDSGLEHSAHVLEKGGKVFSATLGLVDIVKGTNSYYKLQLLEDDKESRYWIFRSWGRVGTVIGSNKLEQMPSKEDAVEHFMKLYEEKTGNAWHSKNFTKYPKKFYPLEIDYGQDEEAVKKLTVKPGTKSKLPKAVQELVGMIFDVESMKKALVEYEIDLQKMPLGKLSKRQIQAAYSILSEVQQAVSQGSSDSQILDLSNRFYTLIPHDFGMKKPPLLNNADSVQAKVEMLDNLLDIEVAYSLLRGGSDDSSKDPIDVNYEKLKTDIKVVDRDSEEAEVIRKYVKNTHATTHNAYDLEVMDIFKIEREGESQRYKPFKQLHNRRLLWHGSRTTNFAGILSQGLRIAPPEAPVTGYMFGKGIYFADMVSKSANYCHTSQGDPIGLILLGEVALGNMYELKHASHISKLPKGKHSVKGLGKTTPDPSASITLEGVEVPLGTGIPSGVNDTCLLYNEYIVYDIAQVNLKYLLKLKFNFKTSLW

As to `COc1cc(CNC(C)(C)C)cc2[nH]c(=O)c3c(c12)NCCC3` [Example 87, 8-[(t-Butylamino)methyl]-10-methoxy-1,2,3,4-tetrahydrobenzo[h][1,6]naphthyridine-5(6H)-one dihydrochloride], the IC50 (as a rule, the concentration needed to halve the response being measured) on PARP-1 enzyme [1] was determined as 610 nM; at PARP-1 enzyme [2], 820 nM. As to `CCCOc1cc(CN)cc2[nH]c(=O)c3c(c12)NCCC3` [Example 114, 8-(Aminomethyl)-10-propoxy-1,2,3,4-tetrahydrobenzo[h][1,6]naphthyridine-5(6H)-one dihydrochloride], the values for the 50% inhibitory concentration (IC50) on PARP-1 enzyme [1] and on PARP-1 enzyme [2] were 190 nM and 1920 nM, respectively. As to `COc1cc(CN2CCC(N3CCOCC3)CC2)cc2[nH]c(=O)c3c(c12)NCCC3` [Example 108, 10-Methoxy-8-[(4-morpholinopiperidine-1-yl)methyl]-1,2,3,4-tetrahydrobenzo[h][1,6]naphthyridine-5(6H)-one trihydrochloride], the IC50 is 140 nM on PARP-1 enzyme [1] and 110 nM on PARP-1 enzyme [2].

Regarding `CCOc1cc(CN)cc2[nH]c(=O)c3c(c12)NCCC3` [Example 113, 8-(Aminomethyl)-10-etoxy-1,2,3,4-tetrahydrobenzo[h][1,6]naphthyridine-5 (6H)-one dihydrochloride], the half-inhibitory concentration (IC50) at PARP-1 enzyme [1] (setting [3]) was 100 nM; on PARP-1 enzyme [2], 1430 nM. In the case of `CCOc1cc(CN(C)C)cc2[nH]c(=O)c3c(c12)NCCC3` [Example 100, 8-[(Dimethylamino)methyl]-10-etoxy-1,2,3,4-tetrahydrobenzo[h][1,6]naphthyridine-5(6H)-one dihydrochloride], the IC50 on PARP-1 enzyme [2] was determined as 60 nM.

For `CNCc1cc(OC)c2c3c(c(=O)[nH]c2c1)CCCN3` [Example 73, 10-Methoxy-8-[(methylamino)methyl]-1,2,3,4-tetrahydrobenzo[h][1,6]naphthyridine-5(6H)-one dihydrochloride], the values for the IC50 at PARP-1 enzyme [1] and at PARP-1 enzyme [2] were 100 nM and 1390 nM, respectively. As to `CCNCc1cc(OCC)c2c3c(c(=O)[nH]c2c1)CCCN3` [Example 104, 10-Etoxy-8-[(ethylamino)methyl]-1,2,3,4-tetrahydrobenzo[h][1,6]naphthyridine-5(6H)-one dihydrochloride], the concentration for half-maximal inhibition (IC50) at PARP-1 enzyme [1] (setting [3]) stood at 60 nM; at PARP-1 enzyme [2], 1650 nM. As for `CN(CCO)Cc1ccc2c3c(c(=O)[nH]c2c1)CCCN3` [Example 53, 8-{[(2-Hydroxyethyl)(methyl)amino]methyl}-1,2,3,4-tetrahydrobenzo[h][1,6]naphthyridine-5(6H)-one dihydrochloride], the values for the IC50 on PARP-1 enzyme [1] and on PARP-1 enzyme [2] were 50 nM and 290 nM, respectively.

With `CCN(C)Cc1ccc2c3c(c(=O)[nH]c2c1)CCCN3` [Example 47, 8-{[Ethyl(methyl)amino]methyl}-1,2,3,4-tetrahydrobenzo[h][1,6]naphthyridine-5(6H)-one dihydrochloride], the IC50 on PARP-1 enzyme [1] turned out to be 70 nM; at PARP-1 enzyme [2], 250 nM. Regarding `CCNCc1ccc2c3c(c(=O)[nH]c2c1)CCCN3` [Example 43, 8-[(Ethylamino)methyl]-1,2,3,4-tetrahydrobenzo[h][1,6]naphthyridine-5(6H)-one dihydrochloride], the results for the IC50 at PARP-1 enzyme [1] and at PARP-1 enzyme [2] were 160 nM and 1770 nM, respectively. On to `COc1cc(CN)cc2[nH]c(=O)c3c(c12)NCCC3` [Example 109, 8-(Aminomethyl)-10-methoxy-1,2,3,4-tetrahydrobenzo[h][1,6]naphthyridine-5(6H)-one dihydrochloride], for which the IC50 on PARP-1 enzyme [1] stood at 70 nM; on PARP-1 enzyme [2], 940 nM.

On to `CN(C)Cc1ccc2c3c(c(=O)[nH]c2c1)CCCN3C` [Example 66, 8-[(Dimethylamino)methyl]-1-methyl-1,2,3,4-tetrahydrobenzo[h][1,6]naphthyridine-5(6H)-one dihydrochloride], for which the values for the IC50 on PARP-1 enzyme [1] (setting [3]), on PARP-1 enzyme [1] and at PARP-1 enzyme [2] were less than 1000 nM, 90 nM and 320 nM, respectively. For the molecule `CCOc1cc(CNC)cc2[nH]c(=O)c3c(c12)NCCC3` [Example 103, 10-Etoxy-8-[(methylamino)methyl]-1,2,3,4-tetrahydrobenzo[h][1,6]naphthyridine-5(6H)-one dihydrochloride], the figures for the IC50 on PARP-1 enzyme [1] (setting [3]) and at PARP-1 enzyme [2] were 120 nM and 820 nM, respectively. For `O=c1[nH]c2cc(CN3CCCCC3)ccc2c2c1CCCN2` [Example 48, 8-(Piperidine-1-ylmethyl)-1,2,3,4-tetrahydrobenzo[h][1,6]naphthyridine-5(6H)-one dihydrochloride], the concentration for half-maximal inhibition (IC50) at PARP-1 enzyme [1] turned out to be 130 nM; on PARP-1 enzyme [2], 430 nM. On to `CN(C)Cc1ccc2c3c(c(=O)[nH]c2c1)CCCN3` [Example 41, 8-[(Dimethylamino)methyl]-1,2,3,4-tetrahydrobenzo[h][1,6]naphthyridine-5(6H)-one dihydrochloride], for which the IC50 on PARP-1 enzyme [1] was 40 nM; on PARP-1 enzyme [2] it was 50 nM. For `CCOc1ccc2[nH]c(=O)c3c(c2c1)NCCC3` [Example 20, 9-Ethoxy-1,2,3,4-tetrahydrobenzo[h][1,6]naphthyridine-5(6H)-one hydrochloride], the IC50 on PARP-1 enzyme [1] (setting [3]) stood at 1540 nM; on PARP-1 enzyme [2], 1300 nM.

Consider `CN1CCCc2c1c1ccccc1[nH]c2=O` [Example 7, 1-Methyl-1,2,3,4-tetrahydrobenzo[h][1,6]naphthyridine-5(6H)-one hydrochloride], for which the IC50 at PARP-1 enzyme [1] (setting [3]) is greater than 4000 nM. For `CN1CCCc2c1c1ccc(CN3CCOCC3)cc1[nH]c2=O` [Example 70, 1-Methyl-8-(morpholinomethyl)-1,2,3,4-tetrahydrobenzo[h][1,6]naphthyridine-5(6H)-one dihydrochloride], the half-maximal inhibitory concentration (IC50) at PARP-1 enzyme [1] was 1090 nM. For `O=c1[nH]c2ccc(OCCN3CCC(c4ccccc4)CC3)cc2c2c1CCCN2` [Example 23, 9-[2-(4-Phenylpiperidine-1yl)ethoxy]-1,2,3,4-tetrahydrobenzo[h][1,6]naphthyridine-5(6H)-one dihydrochloride], the IC50 at PARP-1 enzyme [1] came out at 1430 nM. Regarding `CN1CCCc2c1c1cc(OC3CCNCC3)ccc1[nH]c2=O` [Example 13, 1-Methyl-9-(piperidine-4-yloxy)-1,2,3,4-tetrahydrobenzo[h][1,6]naphthyridine-5(6H)-one dihydrochloride], the IC50 on PARP-1 enzyme [1] amounted to 3850 nM. Regarding `CN(C)Cc1ccc2[nH]c(=O)c3c(c2c1)NCCC3` [Example 50, 9-[(Dimethylamino)methyl]-1,2,3,4-tetrahydrobenzo[h][1,6]naphthyridine-5(6H)-one dihydrochloride], on PARP-1 enzyme [1], the IC50 stood at 320 nM. Turning to `O=c1[nH]c2ccc(OCCc3ccccc3)cc2c2c1CCCN2` [Example 25, 9-Penethoxy-1,2,3,4-tetrahydrobenzo[h][1,6]naphthyridine-5(6H)-one dihydrochloride], at PARP-1 enzyme [1] (setting [3]), the IC50 was greater than 4000 nM. In the case of `NCCOc1ccc2[nH]c(=O)c3c(c2c1)NCCC3` [Example 22, 9-(2-Aminoethoxy)-1,2,3,4-tetrahydrobenzo[h][1,6]naphthyridine-5(6H)-one dihydrochloride], at PARP-1 enzyme [1], the concentration for half-maximal inhibition (IC50) was 1160 nM. Regarding `COc1cc(CNCCN2CCOCC2)cc2[nH]c(=O)c3c(c12)NCCC3` [Example 107, 10-Methoxy-8-[(2-morpholinoethylamino)methyl)-1,2,3,4-tetrahydrobenzo[h][1,6]naphthyridine-5(6H)-one trihydrochloride], the IC50 on PARP-1 enzyme [1] was found to be 70 nM. In the case of `COc1cc(CN(C)N2CCOCC2)cc2[nH]c(=O)c3c(c12)NCCC3` [Example 97, 10-Methoxy-8-{[methyl(morpholino)amino]methyl}-1,2,3,4-tetrahydrobenzo[h][1,6]naphthyridine-5(6H)-one trihydrochloride], the half-maximal inhibitory concentration (IC50) at PARP-1 enzyme [1] amounted to 900 nM.

Consider `O=c1[nH]c2cc(CN3CCCC3)ccc2c2c1CCCN2` [Example 67, 8-(Pyrrolidine-1-ylmethyl)-1,2,3,4-tetrahydrobenzo[h][1,6]naphthyridine-5(6H)-one dihydrochloride], for which the half-maximal inhibitory concentration (IC50) at PARP-1 enzyme [1] (setting [3]) is less than 1000 nM; on PARP-1 enzyme [1] (dihydrochloride), 760 nM. Take `CN1CCC(Oc2ccc3[nH]c(=O)c4c(c3c2)NCCC4)CC1` [Example 12, 9-(1-Methylpiperidine-4-yloxy)-1,2,3,4-tetrahydrobenzo[h][1,6]naphthyridine-5(6H)-one dihydrochloride]: at PARP-1 enzyme [1], the IC50 turned out to be 1070 nM.
